Experimental data as given in US12583884B2, “3beta-(benzyloxy)-17alpha-methyl-pregn-5-en-20-one for use in the treatment of cognitive disorders” (AELIS FARMA, priority 2018, dated 2026).
Like-named read-outs stand apart in the source and are kept apart here.

Columns and labels:
Adenosine A1 = molecular target: T1, Adenosine A1 (Homo sapiens, UniProt P30542); experiment: CEREP binding profile: A1
T1 construct: CEREP
From the text: (§1) The CEREP High-throughput profile consists of a broad collection of 80 transmembrane and soluble receptors, ion channels and G-Protein coupled receptors.

Adenosine A2A = molecular target: T2, Adenosine A2A (Homo sapiens, UniProt P29274); experiment: CEREP binding profile: A2A
T2 construct: CEREP
From the text: as §1

Adrenergic alpha1 = experiment: CEREP binding profile: alpha1; conditions: 10 μM
From the text: as §1

Adrenergic beta1 = molecular target: T3, Adrenergic beta1 (Homo sapiens, UniProt P08588); experiment: CEREP binding profile: beta1
T3 construct: CEREP
T3 sequence (P08588 whole entry): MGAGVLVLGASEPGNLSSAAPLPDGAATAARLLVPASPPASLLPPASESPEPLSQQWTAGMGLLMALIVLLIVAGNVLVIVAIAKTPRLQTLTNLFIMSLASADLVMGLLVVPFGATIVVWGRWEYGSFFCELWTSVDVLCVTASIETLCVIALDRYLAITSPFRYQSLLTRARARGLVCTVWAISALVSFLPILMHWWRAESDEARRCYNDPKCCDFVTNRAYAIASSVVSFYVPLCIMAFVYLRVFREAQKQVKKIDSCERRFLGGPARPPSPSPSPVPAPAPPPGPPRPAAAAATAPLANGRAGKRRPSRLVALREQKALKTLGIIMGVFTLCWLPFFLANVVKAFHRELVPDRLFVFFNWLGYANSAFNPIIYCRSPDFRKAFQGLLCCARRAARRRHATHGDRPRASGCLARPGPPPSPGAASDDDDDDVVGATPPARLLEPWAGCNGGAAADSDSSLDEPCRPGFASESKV
From the text: as §1

Angiotensin-II AT1 = molecular target: T4, Angiotensin-II AT1 (Homo sapiens, UniProt P30556); experiment: CEREP binding profile: AT1
T4 construct: CEREP
T4 sequence (P30556 whole entry): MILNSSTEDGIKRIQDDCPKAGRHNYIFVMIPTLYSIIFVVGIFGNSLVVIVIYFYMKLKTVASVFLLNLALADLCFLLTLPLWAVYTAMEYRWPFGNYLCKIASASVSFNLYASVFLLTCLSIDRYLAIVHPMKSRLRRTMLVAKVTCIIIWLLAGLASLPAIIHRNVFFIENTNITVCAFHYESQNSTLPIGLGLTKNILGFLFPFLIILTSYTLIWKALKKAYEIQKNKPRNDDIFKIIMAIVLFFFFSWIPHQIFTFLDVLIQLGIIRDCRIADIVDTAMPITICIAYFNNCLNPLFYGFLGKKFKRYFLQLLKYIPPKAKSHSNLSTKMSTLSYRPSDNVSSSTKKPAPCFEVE
From the text: as §1

Bradykinin B2 = molecular target: T5, Bradykinin B2 (Homo sapiens, UniProt P30411); experiment: CEREP binding profile: B2
T5 construct: CEREP
From the text: as §1

[1] = molecular target: T6, Calcitonin gene-related CGRP (Homo sapiens, UniProt O60894+Q16602); experiment: CEREP binding profile: CGRP
T6 construct: CEREP
From the text: as §1

Cannabinoid CB1 = molecular target: T7, Cannabinoid CB1 (Homo sapiens, UniProt P21554); experiment: CEREP binding profile: CB1
T7 construct: CEREP
T7 sequence (P21554 whole entry): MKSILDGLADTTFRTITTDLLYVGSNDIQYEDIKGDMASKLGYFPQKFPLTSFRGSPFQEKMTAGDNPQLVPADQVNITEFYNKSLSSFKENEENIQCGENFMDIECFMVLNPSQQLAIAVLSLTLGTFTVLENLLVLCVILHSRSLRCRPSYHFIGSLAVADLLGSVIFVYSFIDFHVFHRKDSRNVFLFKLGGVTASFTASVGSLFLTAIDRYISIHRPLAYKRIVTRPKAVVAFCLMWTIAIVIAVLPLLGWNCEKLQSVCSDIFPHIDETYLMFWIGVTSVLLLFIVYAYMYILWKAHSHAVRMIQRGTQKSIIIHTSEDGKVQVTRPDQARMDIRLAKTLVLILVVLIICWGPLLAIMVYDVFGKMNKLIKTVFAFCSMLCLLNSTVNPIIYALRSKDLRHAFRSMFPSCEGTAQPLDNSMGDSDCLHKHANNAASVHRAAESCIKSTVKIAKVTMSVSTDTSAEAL
From the text: as §1

Chemokines CXCR2 = molecular target: T8, Chemokines CXCR2 (Homo sapiens, UniProt P25025); experiment: CEREP binding profile: CXCR2
T8 construct: CEREP
From the text: as §1

Chemokines CCR1 = molecular target: T9, Chemokines CCR1 (Homo sapiens, UniProt P32246); experiment: CEREP binding profile: CCR1
T9 construct: CEREP
From the text: as §1

Dopamine D3 = molecular target: T10, Dopamine D3 (Homo sapiens, UniProt P35462); experiment: CEREP binding profile: D3
T10 construct: CEREP
From the text: as §1

Dopamine D5 = molecular target: T11, Dopamine D5 (Homo sapiens, UniProt P21918); experiment: CEREP binding profile: D5
T11 construct: CEREP
From the text: as §1

Endothelin ETB = molecular target: T12, Endothelin ETB (Homo sapiens, UniProt P24530); experiment: CEREP binding profile: ETB
T12 construct: CEREP
T12 sequence (P24530 27-442): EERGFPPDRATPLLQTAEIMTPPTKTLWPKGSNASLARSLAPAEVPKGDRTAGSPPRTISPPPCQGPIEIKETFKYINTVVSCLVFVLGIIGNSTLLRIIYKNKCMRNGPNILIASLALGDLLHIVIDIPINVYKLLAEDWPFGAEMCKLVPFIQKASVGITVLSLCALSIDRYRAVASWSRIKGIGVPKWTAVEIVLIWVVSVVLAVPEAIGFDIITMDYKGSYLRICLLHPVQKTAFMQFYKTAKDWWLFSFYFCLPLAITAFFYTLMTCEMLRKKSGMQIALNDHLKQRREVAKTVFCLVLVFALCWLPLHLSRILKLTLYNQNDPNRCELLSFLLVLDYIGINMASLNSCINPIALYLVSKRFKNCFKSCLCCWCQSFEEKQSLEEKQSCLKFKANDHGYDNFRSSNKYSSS
From the text: as §1

Galanin GAL2 = Galanin GAL2 (Homo sapiens, UniProt O43603); experiment: CEREP binding profile: GAL2
Galanin GAL2, sequence (O43603 whole entry): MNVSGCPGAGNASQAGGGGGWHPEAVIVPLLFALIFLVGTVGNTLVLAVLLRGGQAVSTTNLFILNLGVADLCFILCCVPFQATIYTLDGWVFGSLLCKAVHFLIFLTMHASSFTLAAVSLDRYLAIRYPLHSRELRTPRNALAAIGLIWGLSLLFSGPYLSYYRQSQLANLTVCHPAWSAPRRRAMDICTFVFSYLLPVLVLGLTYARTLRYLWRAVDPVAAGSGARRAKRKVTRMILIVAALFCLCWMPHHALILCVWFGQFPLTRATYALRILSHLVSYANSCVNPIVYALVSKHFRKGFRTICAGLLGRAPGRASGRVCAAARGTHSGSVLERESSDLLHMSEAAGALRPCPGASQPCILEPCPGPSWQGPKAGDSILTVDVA
From the text: as §1

Histamine H1 = Histamine H1 (Homo sapiens, UniProt P35367); experiment: CEREP binding profile: H1
Histamine H1, sequence (P35367 whole entry): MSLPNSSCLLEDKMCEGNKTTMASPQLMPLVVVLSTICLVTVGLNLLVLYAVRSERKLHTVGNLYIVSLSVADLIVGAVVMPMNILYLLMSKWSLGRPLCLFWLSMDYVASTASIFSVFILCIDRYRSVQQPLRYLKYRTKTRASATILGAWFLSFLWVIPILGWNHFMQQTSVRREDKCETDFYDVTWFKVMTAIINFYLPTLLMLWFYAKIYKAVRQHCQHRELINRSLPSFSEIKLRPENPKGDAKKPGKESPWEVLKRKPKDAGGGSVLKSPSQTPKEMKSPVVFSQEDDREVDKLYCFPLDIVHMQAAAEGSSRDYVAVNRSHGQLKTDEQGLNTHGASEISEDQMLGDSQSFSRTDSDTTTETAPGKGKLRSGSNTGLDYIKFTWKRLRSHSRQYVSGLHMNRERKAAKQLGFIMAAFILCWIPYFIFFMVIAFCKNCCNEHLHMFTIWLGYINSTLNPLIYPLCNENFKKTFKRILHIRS
From the text: as §1

Neurokinin NK2 = Neurokinin NK2 (Homo sapiens, UniProt P21452); experiment: CEREP binding profile: NK2
From the text: as §1

Neurotensin NTS1 (NT1) = Neurotensin NTS1 (NT1) (Homo sapiens, UniProt P30989); experiment: CEREP binding profile: NTS1
Neurotensin NTS1 (NT1), sequence (P30989 whole entry): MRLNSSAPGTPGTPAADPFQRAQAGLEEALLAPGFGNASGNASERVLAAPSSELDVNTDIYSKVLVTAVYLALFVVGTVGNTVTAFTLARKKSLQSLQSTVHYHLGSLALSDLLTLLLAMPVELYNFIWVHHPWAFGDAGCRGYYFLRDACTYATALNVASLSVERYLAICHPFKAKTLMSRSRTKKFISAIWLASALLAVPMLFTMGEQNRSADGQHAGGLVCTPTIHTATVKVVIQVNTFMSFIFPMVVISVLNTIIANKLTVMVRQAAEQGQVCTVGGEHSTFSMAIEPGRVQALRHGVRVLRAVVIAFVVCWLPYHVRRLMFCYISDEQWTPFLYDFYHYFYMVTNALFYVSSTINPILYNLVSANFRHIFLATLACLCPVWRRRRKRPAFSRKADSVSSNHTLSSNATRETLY
From the text: as §1

[2] = molecular target: Opioid and opioid-like delta2 (DOP) (Homo sapiens, UniProt P41143); experiment: CEREP binding profile: delta2; conditions: 10 μM
Opioid and opioid-like delta2 (DOP), sequence (P41143 whole entry): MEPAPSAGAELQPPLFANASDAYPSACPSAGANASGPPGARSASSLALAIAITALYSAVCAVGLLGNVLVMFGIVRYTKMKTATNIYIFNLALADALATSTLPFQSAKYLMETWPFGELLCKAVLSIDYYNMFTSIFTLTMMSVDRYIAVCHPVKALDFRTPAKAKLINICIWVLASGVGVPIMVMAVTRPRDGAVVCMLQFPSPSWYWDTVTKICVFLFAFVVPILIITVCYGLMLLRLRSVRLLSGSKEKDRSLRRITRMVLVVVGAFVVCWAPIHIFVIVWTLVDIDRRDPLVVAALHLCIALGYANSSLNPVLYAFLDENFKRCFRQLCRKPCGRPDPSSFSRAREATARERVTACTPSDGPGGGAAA
From the text: as §1

[3] = molecular target: Opioid and opioid-like NOP (ORL1) (Homo sapiens, UniProt P41146); experiment: CEREP binding profile: NOP; conditions: 10 μM
From the text: as §1

Prostanoid EP2 = Prostanoid EP2 (Homo sapiens, UniProt P43116); experiment: CEREP binding profile: EP2
Prostanoid EP2, sequence (P43116 whole entry): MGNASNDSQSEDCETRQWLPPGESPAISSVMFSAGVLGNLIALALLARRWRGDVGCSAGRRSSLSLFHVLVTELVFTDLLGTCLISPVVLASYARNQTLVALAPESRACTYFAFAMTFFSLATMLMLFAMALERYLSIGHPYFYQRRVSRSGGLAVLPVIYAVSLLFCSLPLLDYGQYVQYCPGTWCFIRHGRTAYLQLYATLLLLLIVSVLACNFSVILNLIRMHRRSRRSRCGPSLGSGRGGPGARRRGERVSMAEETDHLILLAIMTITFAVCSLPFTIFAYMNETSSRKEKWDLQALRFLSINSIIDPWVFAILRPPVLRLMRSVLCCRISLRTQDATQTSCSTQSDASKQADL
From the text: as §1

Prostanoid EP4 = Prostanoid EP4 (Homo sapiens, UniProt P35408); experiment: CEREP binding profile: EP4
From the text: as §1

[4] = molecular target: T13, Vasoactive intestinal peptide VPAC1 (VIP1) (Homo sapiens, UniProt P32241); experiment: CEREP binding profile: VPAC1
T13 construct: CEREP (contract panel)
T13 sequence (P32241 31-457): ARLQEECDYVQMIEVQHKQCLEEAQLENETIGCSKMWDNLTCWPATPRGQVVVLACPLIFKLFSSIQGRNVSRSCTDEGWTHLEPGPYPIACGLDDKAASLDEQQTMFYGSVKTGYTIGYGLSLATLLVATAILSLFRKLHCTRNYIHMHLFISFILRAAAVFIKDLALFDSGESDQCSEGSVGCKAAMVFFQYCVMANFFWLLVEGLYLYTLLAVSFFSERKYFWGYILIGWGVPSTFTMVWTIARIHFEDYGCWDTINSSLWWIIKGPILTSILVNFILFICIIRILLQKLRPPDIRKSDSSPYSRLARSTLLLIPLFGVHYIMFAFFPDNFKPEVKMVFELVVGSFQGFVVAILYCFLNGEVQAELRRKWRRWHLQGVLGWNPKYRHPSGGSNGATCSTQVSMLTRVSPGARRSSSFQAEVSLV
From the text: as §1

Vasopressin V1a = molecular target: T14, Vasopressin V1a (Homo sapiens, UniProt P37288); experiment: CEREP binding profile: V1a
T14 construct: CEREP (contract panel)
T14 sequence (P37288 whole entry): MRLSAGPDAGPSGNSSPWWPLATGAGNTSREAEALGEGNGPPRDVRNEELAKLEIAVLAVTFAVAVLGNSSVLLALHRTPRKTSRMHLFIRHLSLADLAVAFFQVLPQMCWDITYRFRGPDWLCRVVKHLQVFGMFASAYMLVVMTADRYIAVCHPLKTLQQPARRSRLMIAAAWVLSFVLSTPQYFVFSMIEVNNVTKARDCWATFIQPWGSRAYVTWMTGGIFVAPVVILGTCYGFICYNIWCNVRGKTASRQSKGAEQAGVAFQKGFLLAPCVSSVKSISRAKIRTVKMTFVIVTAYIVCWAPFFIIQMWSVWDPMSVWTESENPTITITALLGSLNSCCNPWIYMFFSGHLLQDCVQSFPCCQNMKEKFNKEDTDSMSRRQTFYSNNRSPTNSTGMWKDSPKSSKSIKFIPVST
From the text: as §1

Serotonin 5-HT2A = molecular target: T15, Serotonin 5-HT2A (Homo sapiens, UniProt P28223); experiment: CEREP binding profile: 5-HT2A
T15 construct: CEREP (contract panel)
From the text: as §1

K+ channels SKCa = experiment: CEREP binding profile: SKCa; conditions: 10 μM
From the text: as §1

[5] = molecular target: T16, Transporters Serotonin 5-HT trans. (Homo sapiens, UniProt P31645); experiment: CEREP binding profile: 5-HT trans.
T16 construct: CEREP (contract panel)
From the text: as §1

Cytokines TNF-alpha = experiment: CEREP binding profile: TNF-alpha; conditions: 10 μM
From the text: as §1

Sigma sigma = experiment: CEREP binding profile: sigma; conditions: 10 μM
From the text: as §1

[6] = tested on: Steroid nuclear receptors ER; experiment: Binding: ER; conditions: 10 μM
From the text: as §1

[7] = molecular target: T17, Steroid nuclear receptors PR (Homo sapiens, UniProt P06401); experiment: Binding: PR
T17 construct: CEREP
T17 sequence (P06401 1-933): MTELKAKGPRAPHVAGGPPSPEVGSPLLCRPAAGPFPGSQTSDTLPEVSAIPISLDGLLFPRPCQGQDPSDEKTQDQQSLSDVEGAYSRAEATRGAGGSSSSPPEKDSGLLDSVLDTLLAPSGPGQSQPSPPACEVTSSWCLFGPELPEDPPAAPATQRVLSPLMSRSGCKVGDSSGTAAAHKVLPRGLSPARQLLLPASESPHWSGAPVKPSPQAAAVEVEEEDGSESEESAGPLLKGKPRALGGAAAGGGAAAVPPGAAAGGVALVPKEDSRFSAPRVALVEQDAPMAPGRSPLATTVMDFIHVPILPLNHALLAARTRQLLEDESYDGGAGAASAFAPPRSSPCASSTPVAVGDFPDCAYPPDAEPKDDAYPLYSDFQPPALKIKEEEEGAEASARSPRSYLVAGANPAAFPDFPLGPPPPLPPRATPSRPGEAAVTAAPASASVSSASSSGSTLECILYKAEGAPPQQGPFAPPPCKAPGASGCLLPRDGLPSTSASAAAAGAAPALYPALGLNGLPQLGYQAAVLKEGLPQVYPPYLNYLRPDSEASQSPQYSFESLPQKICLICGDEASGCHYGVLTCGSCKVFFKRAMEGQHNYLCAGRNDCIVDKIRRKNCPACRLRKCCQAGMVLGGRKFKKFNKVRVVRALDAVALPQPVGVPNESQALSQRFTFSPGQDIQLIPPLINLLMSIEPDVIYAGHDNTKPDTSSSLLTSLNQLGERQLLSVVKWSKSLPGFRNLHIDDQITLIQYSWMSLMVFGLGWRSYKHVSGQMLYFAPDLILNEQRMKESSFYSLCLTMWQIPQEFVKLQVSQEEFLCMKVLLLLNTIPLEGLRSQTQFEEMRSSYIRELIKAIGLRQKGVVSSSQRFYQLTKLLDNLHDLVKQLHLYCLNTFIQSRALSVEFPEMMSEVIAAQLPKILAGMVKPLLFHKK
From the text: as §1

T1 sequence (P30542 whole entry): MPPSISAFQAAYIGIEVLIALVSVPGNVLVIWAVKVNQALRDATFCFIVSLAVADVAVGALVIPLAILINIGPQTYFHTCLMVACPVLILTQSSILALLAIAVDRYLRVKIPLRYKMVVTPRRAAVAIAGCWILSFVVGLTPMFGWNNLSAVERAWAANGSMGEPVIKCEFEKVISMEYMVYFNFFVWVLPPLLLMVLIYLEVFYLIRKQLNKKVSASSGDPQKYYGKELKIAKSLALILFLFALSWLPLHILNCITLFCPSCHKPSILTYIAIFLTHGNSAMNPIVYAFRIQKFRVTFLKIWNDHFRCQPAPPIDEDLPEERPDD

| SMILES | inhibition at 10 µM (Adenosine A1) [%] | inhibition at 10 µM (Adenosine A2A) [%] | % Inhibition (Adrenergic alpha1) [%] | inhibition at 10 µM (Angiotensin-II AT1) [%] | inhibition at 10 µM (Bradykinin B2) [%] | inhibition at 10 µM [1] [%] | inhibition at 10 µM (Chemokines CXCR2) [%] | inhibition at 10 µM (Chemokines CCR1) [%] | inhibition at 10 µM (Endothelin ETB) [%] | inhibition at 10 µM (Galanin GAL2) [%] | inhibition at 10 µM (Histamine H1) [%] | inhibition at 10 µM (Neurokinin NK2) [%] | inhibition at 10 µM (Neurotensin NTS1 (NT1)) [%] | % Inhibition [2] [%] | % Inhibition [3] [%] | inhibition at 10 µM (Prostanoid EP2) [%] | inhibition at 10 µM (Prostanoid EP4) [%] | inhibition at 10 µM [4] [%] | inhibition at 10 µM (Vasopressin V1a) [%] | % Inhibition (K+ channels SKCa) [%] | also measured |
| --- | --- | --- | --- | --- | --- | --- | --- | --- | --- | --- | --- | --- | --- | --- | --- | --- | --- | --- | --- | --- | --- |
| CC(=O)[C@@]1(C)CC[C@H]2[C@@H]3CC=C4C[C@@H](OCc5ccccc5)CC[C@]4(C)[C@H]3CC[C@@]21C [3Bn17MeP, 3β-benzyloxy, 17α-methyl-pregn-5-en-20-one] | -27 | -6 | 5 | -13 | 0 | -15 | 0 | -13 | -13 | -11 | 3 | -12 | -13 | −3 | 2 | 19 | 25 | -17 | 0 | −3 | % Inhibition (Adrenergic beta1; 10 μM): 7%; % Inhibition (Cannabinoid CB1; 10 μM): 2%; % Inhibition (Dopamine D3; 10 μM): −2%; % Inhibition (Dopamine D5; 10 μM): −6%; inhibition at 10 µM (Serotonin 5-HT2A): -8%; inhibition at 10 µM [5]: 1%; Inhibition % (Cytokines TNF-alpha): 4%; Inhibition % (Sigma sigma): 9%; Inhibition % [6]: −5%; inhibition at 10 µM [7]: 20% |
| CC(=O)[C@H]1CC[C@H]2[C@@H]3CC=C4C[C@@H](O)CC[C@]4(C)[C@H]3CC[C@]12C [pregnenolone, reference compound] | -25 | -1 | 1 | -28 | -9 | -12 | -10 | -10 | 4 | 1 | 0 | -1 | -19 | 9 | 2 | 24 | 21 | -10 | 10 | −8 | inhibition at 10 µM (Adrenergic beta1): 4%; inhibition at 10 µM (Cannabinoid CB1): 10%; inhibition at 10 µM (Dopamine D3): 11%; inhibition at 10 µM (Dopamine D5): -4%; inhibition at 10 µM (Serotonin 5-HT2A; 5-HT2A, 10 μM, read-out: % Inhibition): -1%; inhibition at 10 µM ([5]; 5-HT trans., 10 μM, read-out: % Inhibition): 1%; Inhibition % (Cytokines TNF-alpha): 4%; Inhibition % (Sigma sigma): 26%; Inhibition % [6]: 26%; inhibition at 10 µM [7]: > 80%; Inhibition % ([7]; 10 μM): 87% |
